Data as given in ChEMBL document CHEMBL1671670, “CS-8958, a prodrug of the novel neuraminidase inhibitor R-125489, demonstrates a favorable long-retention profile in the mouse respiratory tract” (Antimicrob Agents Chemother, 2009).

What was measured:
Lung [1] = assay: Drug level in BALB/cAnNCrlCrlj mouse lung at 0.5 umol/kg administered as [14C]labeled compound intranasally as single dose measured 120 hrs post dose; format: ADME, tissue-based; details: in vivo, inhaled_or_intranasal
Lung [2] = assay: Cmax in BALB/cAnNCrlCrlj mouse lung assessed as compound concentration per gram of tissue at 0.5 umol/kg administered as [14C]labeled compound intranasally as single dose; format: ADME, organism-based; parameters: dose 0.5 umol/kg, route nasal; details: in vivo, inhaled_or_intranasal
Lung [3] = assay: Tmax in BALB/cAnNCrlCrlj mouse lung at 0.5 umol/kg administered as [14C]labeled compound intranasally as single dose; format: ADME, organism-based; details: in vivo, inhaled_or_intranasal
Lung [4] = assay: Half life in BALB/cAnNCrlCrlj mouse lung at 0.5 umol/kg administered as [14C]labeled compound intranasally as single dose; format: ADME, organism-based; details: in vivo, inhaled_or_intranasal
Influenza A virus = assay: Antiviral activity against Influenza A virus (A/Puerto Rico/8/1934(H1N1)); format: functional, organism-based
[5] = Prodrug conversion in BALB/cAnNCrlCrlj mouse lung S9 fraction assessed as compound conversion to R-125489 at 10 uM in presence of esterase inhibitor BNPP administered 10 mins before compound addition relative to untreated control; format: ADME; details: s9, 10 min
[6] = Prodrug conversion in BALB/cAnNCrlCrlj mouse lung S9 fraction assessed as compound conversion to R-125489 at 10 uM relative to untreated control; format: ADME; details: s9, 10 µM
[7] = Prodrug conversion in BALB/cAnNCrlCrlj mouse lung S9 fraction assessed as compound conversion to R-125489 at 10 uM in presence of esterase inhibitor EDTA administered 10 mins before compound addition relative to untreated control; format: ADME; details: s9, 10 min
[8] = Prodrug conversion in BALB/cAnNCrlCrlj mouse trachea assessed as compound conversion to R-125489 at 10 uM in presence of esterase inhibitor DFP administered 10 mins before compound addition relative to untreated control; format: ADME, tissue-based
[9] = Prodrug conversion in BALB/cAnNCrlCrlj mouse lung S9 fraction assessed as compound conversion to R-125489 at 10 uM in presence of esterase inhibitor eserine administered 10 mins before compound addition relative to untreated control; format: ADME; details: s9, 10 min
[10] = Prodrug conversion in BALB/cAnNCrlCrlj mouse lung S9 fraction assessed as compound conversion to R-125489 at 10 uM in presence of esterase inhibitor DFP administered 10 mins before compound addition relative to untreated control; format: ADME; details: s9, 10 min
[11] = Prodrug conversion in BALB/cAnNCrlCrlj mouse lung S9 fraction assessed as compound conversion to R-125489 at 10 uM in presence of esterase inhibitor DTNB administered 10 mins before compound addition relative to untreated control; format: ADME; details: s9, 10 min
[12] = Prodrug conversion in BALB/cAnNCrlCrlj mouse lung S9 fraction assessed as compound conversion to R-125489 at 10 uM in presence of esterase inhibitor PCMB administered 10 mins before compound addition relative to untreated control; format: ADME; details: s9, 10 min
[13] = Prodrug conversion in BALB/cAnNCrlCrlj mouse trachea assessed as compound conversion to R-125489 at 10 uM relative to untreated control; format: ADME, tissue-based
Lung [14] = assay: Biodistribution in lung of BALB/cAnNCrlCrlj mouse at 0.5 umol/kg administered as [14C]labeled compound intranasally as single dose measured 0.25 hrs post dose by liquid scintillation counting; format: ADME, organism-based; details: in vivo, inhaled_or_intranasal
[15] = Biodistribution in trachea of BALB/cAnNCrlCrlj mouse at 0.5 umol/kg administered as [14C]labeled compound intranasally as single dose measured 0.25 hrs post dose by liquid scintillation counting; format: ADME, organism-based; details: in vivo, inhaled_or_intranasal
[16] = Biodistribution in trachea of BALB/cAnNCrlCrlj mouse at 0.5 umol/kg administered as [14C]labeled compound intranasally as single dose measured 24 hrs post dose by liquid scintillation counting; format: ADME, organism-based; details: in vivo, inhaled_or_intranasal
[17] = Biodistribution in respiratory tract of BALB/cAnNCrlCrlj mouse at 0.5 umol/kg administered as [14C]labeled compound intranasally as single dose measured 6 hrs post dose by whole body autoradiography; format: ADME, organism-based; details: in vivo, inhaled_or_intranasal
Lung [18] = assay: Biodistribution in lung of BALB/cAnNCrlCrlj mouse at 0.5 umol/kg administered as [14C]labeled compound intranasally as single dose measured 24 hrs post dose by liquid scintillation counting; format: ADME, organism-based; details: in vivo, inhaled_or_intranasal
[19] = Biodistribution in respiratory tract of BALB/cAnNCrlCrlj mouse at 0.5 umol/kg administered as [14C]labeled compound intranasally as single dose measured 72 hrs post dose by whole body autoradiography; format: ADME, organism-based; details: in vivo, inhaled_or_intranasal

Question: Which results are given for `CO[C@@H]([C@@H]1OC(C(=O)O)=C[C@H](NC(=N)N)[C@H]1NC(C)=O)[C@H](O)CO` [LANINAMIVIR]?
Answer: Drug uptake (Lung [1]): 0.915 nmol/g; Cmax (Lung [2]): 6.41 nmol/g; Tmax (Lung [3]): 3 h; t1/2 (Lung [4]): 41.4 h; IC50 (Influenza A virus): 5.97 nM

Question: For `CCCCCCCC(=O)OC[C@@H](O)[C@@H](OC)[C@@H]1OC(C(=O)O)=C[C@H](NC(=N)N)[C@H]1NC(C)=O` [LANINAMIVIR OCTANOATE], which Activity [5] is on record?
Answer: 21%

Question: And the Activity [6]?
Answer: 100%

Question: What about the Activity [7] of the same compound?
Answer: 130.7%

Question: And the Activity [8]?
Answer: 44.1%

Question: And the Activity [9]?
Answer: 31.9%

Question: And the Activity [10]?
Answer: 13.6%

Question: And the t1/2 (Lung [4])?
Answer: 0.833 h

Question: What about the Activity [11] of the same compound?
Answer: 42%

Question: And the Activity [12]?
Answer: 106.5%

Question: What about the Activity [13] of the same compound?
Answer: 100%

Question: Which results are given for `CC(=O)N[C@H]1[C@H]([C@H](O)[C@H](O)CO)OC(C(=O)O)=C[C@@H]1N[14C](=N)N` [[14C]-ZANAMIVIR]?
Answer: Drug uptake (Lung [14]): 30 nmolequiv/g; Drug uptake [15]: 4 nmolequiv/g

Question: What does the source list for `CCCCCCCC(=O)OC[C@@H](O)[C@@H](OC)[C@@H]1OC(C(=O)O)=C[C@H](N[14C](=N)N)[C@H]1NC(C)=O`?
Answer: Drug uptake [16]: 0.99 nmolequiv/g; Drug uptake [17]: Active; Drug uptake (Lung [14]): 30 nmolequiv/g; Drug uptake [15]: 4 nmolequiv/g; Drug uptake (Lung [18]): 5.57 nmolequiv/g; Drug uptake [19]: Active

Question: What does the source list for `CO[C@@H]([C@@H]1OC(C(=O)O)=C[C@H](N[14C](=N)N)[C@H]1NC(C)=O)[C@H](O)CO`?
Answer: Drug uptake (Lung [14]): 30 nmolequiv/g; Drug uptake [15]: 4 nmolequiv/g
